Here are results for 17 molecules from ChEMBL document CHEMBL4406795, “An overview on the synthetic and medicinal perspectives of indenopyrazoles” (Eur J Med Chem, 2019).

pIC50: −log10 of the molar value. ≈ marks a conversion by molar mass, not a printed value.

Test [1] addresses Cyclin-dependent kinase 2 (Homo sapiens, UniProt P24941). The experiment in a line: Inhibition of CDK2 (unknown origin).
In test [2] the test system is Bacillus subtilis. The test is described as follows: Antibacterial activity against Bacillus subtilis MTCC 441 after 48 hrs by serial tube dilution method. It counts as functional. The following applies: MTCC 441, 48 h.
Test [3] relates to Staphylococcus aureus. The test is described as follows: Antibacterial activity against Staphylococcus aureus MTCC 7443 after 48 hrs by serial tube dilution method. It counts as functional. The following applies: MTCC 7443, 48 h.
The test system of test [4] is Escherichia coli. The test is described as follows: Antibacterial activity against Escherichia coli MTCC 42 after 48 hrs by serial tube dilution method. The following applies: for MIC: Escherichia coli, MTCC 42, 48 h. Format: functional.
A further test deals with Pseudomonas aeruginosa. The experiment in a line: Antibacterial activity against Pseudomonas aeruginosa MTCC 741 after 48 hrs by serial tube dilution method. Format: functional. The following applies: MTCC 741, 48 h.
The subject of test [5] is Candida albicans. The experiment in a line: Antifungal activity against Candida albicans MTCC 183 after 120 hrs by serial tube dilution method. It counts as functional. The following applies: MTCC 183, 120 h.
Test [6] relates to Aspergillus niger. The test is described as follows: Antifungal activity against Aspergillus niger MTCC 282 after 120 hrs by serial tube dilution method. Format: functional. The conditions noted are these: MTCC 282, 120 h.
Test [7] concerns Candida albicans. The experiment in a line: Antifungal activity against Candida albicans MTCC 183 assessed as zone of inhibition. Format: functional.
For test [8], the system named is Aspergillus niger. The experiment in a line: Antifungal activity against Aspergillus niger MTCC 282 assessed as zone of inhibition. Format: functional.
Test [9] concerns Bacillus subtilis. The test is described as follows: Antibacterial activity against Bacillus subtilis MTCC 441 assessed as zone of inhibition. It counts as functional.
The test system of test [10] is Staphylococcus aureus. The test is described as follows: Antibacterial activity against Staphylococcus aureus MTCC 7443 assessed as zone of inhibition. Format: functional.
Test [11] relates to Escherichia coli. The experiment in a line: Antibacterial activity against Escherichia coli MTCC 42 assessed as zone of inhibition. Format: functional.

In turn, `COc1ccc(-c2[nH]nc3c2C(=O)c2c(NC(=O)CN4CCN(C(=N)N)CC4)cccc2-3)cc1` showed a pIC50 in test [1] of 7.89.

Consider `NC(=O)Nc1cccc2c1C(=O)c1c-2n[nH]c1-c1csc(Cl)c1`, for which the negative logarithm of the IC50 (pIC50) in test [1] is 7.34.

Take `COc1cc2c(cc1OC)C1=NN(C(N)=S)C(c3ccc(F)cc3)C1C2` (stereo unspecified): the MIC against Bacillus subtilis [2], with Staphylococcus aureus [3], in the test on Escherichia coli [4] and against Pseudomonas aeruginosa was 4 µg/mL (≈ 10.8 µM) in each case.

`COc1ccc(C2C3Cc4cc(OC)c(OC)cc4C3=NN2C(N)=O)cc1` (stereo unspecified): the MIC fell in the range of 2 to 4 µg/mL (≈ 5.44 to 10.9 µM) against Candida albicans [5] and 2 to 4 µg/mL against Aspergillus niger [6].

With `O=C(Nc1cccc2c1C(=O)c1c-2n[nH]c1-c1ccc(C(=O)N2CCNCC2)s1)NN1CCOCC1`, in test [1], the pIC50 was 8.10.

Regarding `CCc1nn(-c2nc(-c3ccc(Cl)cc3)cs2)c2c1Cc1ccccc1-2`, in the test on Escherichia coli [4], the “-logMIC” value was 1.78.

On to `Clc1ccc(-c2c3c(nn2-c2ccccc2)-c2ccccc2C3)cc1`, for which the MIC is 50 µg/mL (≈ 146 µM) in the test with Candida albicans [5] and 50 µg/mL in the test on Aspergillus niger [6]. The “inhibition zone (IZ)” value in the test with Candida albicans [7] and with Aspergillus niger [8] was 16 mm in each case.

Turning to `Cc1nn(-c2nc(-c3ccc(Cl)cc3)cs2)c2c1C(=O)c1ccccc1-2`, the “-logMIC” value in the test on Escherichia coli [4] came out at 1.479.

For the molecule `O=[N+]([O-])c1ccc(-c2nn(-c3ccccc3)cc2-c2c3c(nn2-c2ccccc2)-c2ccccc2C3)cc1`, the minimum inhibitory concentration (MIC) was 50 µg/mL (≈ 101 µM) against Bacillus subtilis [2]; 50 µg/mL (≈ 101 µM) against Staphylococcus aureus [3]; 50 µg/mL (≈ 101 µM) against Escherichia coli [4]; 50 µg/mL (≈ 101 µM) against Candida albicans [5]; 50 µg/mL against Aspergillus niger [6]. The “inhibition zone (IZ)” value is on record as 20 mm in the test with Bacillus subtilis [9]; 20 mm with Staphylococcus aureus [10]; 20 mm in the test on Escherichia coli [11]; 18 mm with Candida albicans [7]; 18 mm with Aspergillus niger [8].

As to `COc1ccc(-c2n[nH]c3c2C(=O)c2c(C=O)cccc2-3)cc1`, the negative logarithm of the IC50 (pIC50) in test [1] is 7.24.

`Cc1nn(-c2nc(-c3ccc(Cl)cc3)cs2)c2c1Cc1ccccc1-2`: in the test on Escherichia coli [4], the “-logMIC” value came out at 1.764.

On to `Clc1ccc(-c2nn(-c3ccccc3)cc2-c2c3c(nn2-c2ccccc2)-c2ccccc2C3)cc1`, for which the minimal inhibitory concentration (MIC) in the test with Bacillus subtilis [2], against Staphylococcus aureus [3] and with Escherichia coli [4] was 50 µg/mL (≈ 103 µM) in each case. Further, the “inhibition zone (IZ)” value with Bacillus subtilis [9], in the test on Staphylococcus aureus [10] and in the test on Escherichia coli [11] was 17 mm throughout.

On to `CCc1nn(-c2nc(-c3ccc(Cl)cc3)cs2)c2c1C(=O)c1ccccc1-2`, for which, in the test on Escherichia coli [4], the “-logMIC” value came to 2.098.

Turning to `O=[N+]([O-])c1ccc(-c2c3c(nn2-c2ccccc2)-c2ccccc2C3)cc1`, the MIC was 50 µg/mL (≈ 141 µM) with Bacillus subtilis [2]; 50 µg/mL (≈ 141 µM) against Staphylococcus aureus [3]; 50 µg/mL (≈ 141 µM) against Escherichia coli [4]; 50 µg/mL (≈ 141 µM) in the test on Candida albicans [5]; 50 µg/mL against Aspergillus niger [6]. In addition, the “inhibition zone (IZ)” value with Bacillus subtilis [9] worked out at 18 mm; with Staphylococcus aureus [10] it was 18 mm; in the test on Escherichia coli [11] it was 18 mm; in the test with Candida albicans [7] it was 13 mm; with Aspergillus niger [8] it was 13 mm.

Molecule `Cc1ccc2nc(-n3nc(-c4ccc(Cl)cc4)c4c3-c3ccccc3C4=O)sc2c1` gave an MIC against Aspergillus niger [6] of 3.6 µM.

Consider `O=[N+]([O-])c1cccc(-c2c3c(nn2-c2ccccc2)-c2ccccc2C3)c1`, for which the MIC is 50 µg/mL (≈ 141 µM) in the test on Bacillus subtilis [2]; 50 µg/mL (≈ 141 µM) against Staphylococcus aureus [3]; 50 µg/mL (≈ 141 µM) in the test on Escherichia coli [4]; 50 µg/mL (≈ 141 µM) against Candida albicans [5]; 50 µg/mL against Aspergillus niger [6]. Also, the “inhibition zone (IZ)” value with Bacillus subtilis [9] is 17 mm; in the test on Staphylococcus aureus [10], 17 mm; with Escherichia coli [11] it was 17 mm; with Candida albicans [7], 15 mm; with Aspergillus niger [8] it was 15 mm.

As to `OC(Cn1cncn1)(Cn1cncn1)c1ccc(F)cc1F` [FLUCONAZOLE], in the test with Aspergillus niger [6], the lowest concentration to inhibit growth (MIC) was 5 µM.
